Results from the NIST ThermoML archive (doi:10.1021/acs.jced.8b00132).
Where “and” joins values, the source holds several entries; their conditions need not be identical. Equal values may be shown once. ± gives the expanded uncertainty stated by the source.

Settings: Gas

O=C(C(F)(F)C(F)(F)F)C(F)(C(F)(F)F)C(F)(F)F [dodecafluoro-2-methylpentan-3-one]
Settings | thermal conductivity
473.94 K, 607 kPa, transient hot wire | 0.02517 ± 0.0015 W/m/K
473.94 K, 608 kPa, transient hot wire | 0.02532 ± 0.0016 W/m/K
473.94 K, 1476 kPa, transient hot wire | 0.02574 ± 0.00085 W/m/K
473.96 K, 1476 kPa, transient hot wire | 0.02582 ± 0.00085 W/m/K
473.98 K, 426 kPa, transient hot wire | 0.02562 ± 0.0016 W/m/K
473.99 K, 423 kPa, transient hot wire | 0.02558 ± 0.0016 W/m/K
474.04 K, 842 kPa, transient hot wire | 0.02513 ± 0.0015 W/m/K and 0.02512 ± 0.0015 W/m/K
474.09 K, 607 kPa, transient hot wire | 0.02539 ± 0.0016 W/m/K and 0.02526 ± 0.0015 W/m/K
474.16 K, 420 kPa, transient hot wire | 0.02565 ± 0.0016 W/m/K
474.16 K, 421 kPa, transient hot wire | 0.02567 ± 0.0016 W/m/K
474.19 K, 842 kPa, transient hot wire | 0.02519 ± 0.0015 W/m/K
474.2 K, 841 kPa, transient hot wire | 0.0252 ± 0.0015 W/m/K
474.27 K, 606 kPa, transient hot wire | 0.02536 ± 0.0016 W/m/K
474.28 K, 606 kPa, transient hot wire | 0.02535 ± 0.0016 W/m/K
474.31 K, 419 kPa, transient hot wire | 0.02566 ± 0.0016 W/m/K
474.32 K, 419 kPa, transient hot wire | 0.0257 ± 0.0016 W/m/K
499.37 K, 646 kPa, hot wire | 0.02778 ± 0.0013 W/m/K
499.37 K, 647 kPa, hot wire | 0.02768 ± 0.0013 W/m/K
499.4 K, 421 kPa, hot wire | 0.02708 ± 0.0013 W/m/K
499.41 K, 221 kPa, hot wire | 0.02654 ± 0.0013 W/m/K
499.41 K, 422 kPa, hot wire | 0.0269 ± 0.0013 W/m/K
499.42 K, 220 kPa, hot wire | 0.02629 ± 0.0012 W/m/K
499.45 K, 60 kPa, hot wire | 0.02624 ± 0.0012 W/m/K
499.45 K, 645 kPa, hot wire | 0.02749 ± 0.0013 W/m/K and 0.02782 ± 0.0013 W/m/K
499.47 K, 60 kPa, hot wire | 0.02576 ± 0.0012 W/m/K
499.49 K, 419 kPa, hot wire | 0.0267 ± 0.0013 W/m/K
499.5 K, 419 kPa, hot wire | 0.02667 ± 0.0013 W/m/K
499.5 K, 50295 kPa, transient hot wire | 0.06261 ± 0.0016 W/m/K
499.51 K, 219 kPa, hot wire | 0.02641 ± 0.0012 W/m/K
499.51 K, 220 kPa, hot wire | 0.02635 ± 0.0012 W/m/K
499.52 K, 4853 kPa, transient hot wire | 0.03589 ± 0.00085 W/m/K and 0.03595 ± 0.00086 W/m/K
499.52 K, 50304 kPa, transient hot wire | 0.06215 ± 0.0016 W/m/K
499.53 K, 644 kPa, hot wire | 0.02758 ± 0.0013 W/m/K
499.53 K, 2128 kPa, transient hot wire | 0.02828 ± 0.0017 W/m/K
499.54 K, 61 kPa, hot wire | 0.02593 ± 0.0012 W/m/K
499.55 K, 61 kPa, hot wire | 0.02598 ± 0.0012 W/m/K
499.55 K, 644 kPa, hot wire | 0.02734 ± 0.0013 W/m/K
499.56 K, 419 kPa, hot wire | 0.02715 ± 0.0013 W/m/K
499.56 K, 50302 kPa, transient hot wire | 0.06239 ± 0.0016 W/m/K
499.57 K, 419 kPa, hot wire | 0.02691 ± 0.0013 W/m/K
499.57 K, 4325 kPa, transient hot wire | 0.0351 ± 0.0022 W/m/K
499.57 K, 50305 kPa, transient hot wire | 0.06236 ± 0.0016 W/m/K
499.58 K, 3937 kPa, transient hot wire | 0.03408 ± 0.0021 W/m/K
499.58 K, 4853 kPa, transient hot wire | 0.03611 ± 0.00086 W/m/K
499.59 K, 50256 kPa, transient hot wire | 0.06271 ± 0.0016 W/m/K
499.59 K, 50258 kPa, transient hot wire | 0.06238 ± 0.0016 W/m/K
499.6 K, 218 kPa, hot wire | 0.02625 ± 0.0012 W/m/K
499.6 K, 219 kPa, hot wire | 0.0263 ± 0.0012 W/m/K
499.6 K, 3614 kPa, transient hot wire | 0.03311 ± 0.002 W/m/K
499.6 K, 4853 kPa, transient hot wire | 0.036 ± 0.00086 W/m/K
499.61 K, 35693 kPa, transient hot wire | 0.05695 ± 0.0014 W/m/K
499.61 K, 50280 kPa, transient hot wire | 0.06265 ± 0.0016 W/m/K
499.62 K, 61 kPa, hot wire | 0.02606 ± 0.0012 W/m/K and 0.02605 ± 0.0012 W/m/K
499.62 K, 5588 kPa, transient hot wire | 0.03699 ± 0.00088 W/m/K
499.62 K, 35669 kPa, transient hot wire | 0.057 ± 0.0014 W/m/K
499.62 K, 35696 kPa, transient hot wire | 0.05672 ± 0.0014 W/m/K
499.63 K, 643 kPa, hot wire | 0.02745 ± 0.0013 W/m/K
499.63 K, 3615 kPa, transient hot wire | 0.03333 ± 0.0021 W/m/K
499.63 K, 4324 kPa, transient hot wire | 0.03525 ± 0.0022 W/m/K
499.63 K, 5589 kPa, transient hot wire | 0.03717 ± 0.00088 W/m/K
499.63 K, 35672 kPa, transient hot wire | 0.05682 ± 0.0014 W/m/K
499.63 K, 50307 kPa, transient hot wire | 0.06251 ± 0.0016 W/m/K
499.64 K, 644 kPa, hot wire | 0.02725 ± 0.0013 W/m/K
499.64 K, 1595 kPa, transient hot wire | 0.0274 ± 0.0009 W/m/K
499.64 K, 3289 kPa, transient hot wire | 0.03215 ± 0.002 W/m/K
499.64 K, 4325 kPa, transient hot wire | 0.03518 ± 0.0022 W/m/K
499.64 K, 50259 kPa, transient hot wire | 0.06245 ± 0.0016 W/m/K
499.65 K, 419 kPa, hot wire | 0.02725 ± 0.0013 W/m/K
499.65 K, 1595 kPa, transient hot wire | 0.02712 ± 0.00089 W/m/K
499.65 K, 2128 kPa, transient hot wire | 0.02826 ± 0.0017 W/m/K and 0.0282 ± 0.0017 W/m/K
499.65 K, 4853 kPa, transient hot wire | 0.03633 ± 0.00086 W/m/K
499.65 K, 4854 kPa, transient hot wire | 0.03629 ± 0.00086 W/m/K
499.66 K, 418 kPa, hot wire | 0.02719 ± 0.0013 W/m/K
499.66 K, 3937 kPa, transient hot wire | 0.03435 ± 0.0021 W/m/K and 0.03413 ± 0.0021 W/m/K
499.67 K, 2953 kPa, transient hot wire | 0.0308 ± 0.0019 W/m/K
499.67 K, 35694 kPa, transient hot wire | 0.05685 ± 0.0014 W/m/K
499.68 K, 50260 kPa, transient hot wire | 0.06229 ± 0.0016 W/m/K
499.69 K, 218 kPa, hot wire | 0.02623 ± 0.0012 W/m/K and 0.0264 ± 0.0012 W/m/K
499.69 K, 5590 kPa, transient hot wire | 0.03719 ± 0.00089 W/m/K
499.69 K, 35675 kPa, transient hot wire | 0.05669 ± 0.0014 W/m/K
499.69 K, 35681 kPa, transient hot wire | 0.05715 ± 0.0014 W/m/K
499.69 K, 50252 kPa, transient hot wire | 0.06264 ± 0.0016 W/m/K
499.7 K, 60 kPa, hot wire | 0.02639 ± 0.0012 W/m/K and 0.0261 ± 0.0012 W/m/K
499.7 K, 2953 kPa, transient hot wire | 0.03112 ± 0.0019 W/m/K
